Earlier results in patent US6326360A, “Bubbling enteric coated preparations” (Grelan Pharmaceuticals Co., Ltd., priority 1998, dated 2001).

Conditions: oral tablets

transfer of unchanged glycyrrhizin into blood (in words): hardly observed
SMILES: CC1(C)[C@@H](O[C@H]2O[C@H](C(=O)O)[C@@H](O)[C@H](O)[C@H]2O[C@@H]2O[C@H](C(=O)O)[C@@H](O)[C@H](O)[C@H]2O)CC[C@]2(C)[C@H]3C(=O)C=C4[C@@H]5C[C@@](C)(C(=O)O)CC[C@]5(C)CC[C@@]4(C)[C@]3(C)CC[C@@H]12 [glycyrrhizin]
decomposition of glycyrrhizin in the stomach (in words): quickly decomposed into glycyrrhetinic acid in the stomach
